{"source": "paper PMC5432238", "about": "“Pre-clinical evaluation of small molecule LOXL2 inhibitors in breast cancer” (Oncotarget, 2017)", "key": {"[1]": {"molecular_target": "T1, native human LOX enzyme (Homo sapiens, UniProt P28300)", "T1 construct": "fibroblast derived LOX, which was prepared by collecting the supernatant of IMR90 cells; endogenous in cells; host or cells: IMR90 cells (supernatant, size filtered > 10 kDa and < 50 kDa)", "T1 sequence (P28300 169-417)": "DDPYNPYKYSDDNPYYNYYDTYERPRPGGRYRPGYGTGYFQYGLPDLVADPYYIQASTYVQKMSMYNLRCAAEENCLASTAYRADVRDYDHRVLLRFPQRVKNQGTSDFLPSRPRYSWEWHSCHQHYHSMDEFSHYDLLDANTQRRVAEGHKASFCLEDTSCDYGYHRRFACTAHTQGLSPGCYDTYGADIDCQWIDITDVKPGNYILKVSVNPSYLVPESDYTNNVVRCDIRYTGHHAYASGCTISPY", "experiment": "Amplex Red activity/inhibition assay, native fibroblast-derived LOX", "format": "biochemical", "conditions": "native fibroblast (IMR90) derived LOX; putrescine substrate", "protocol": "(§1) The standard amplex red assay has been used as previously described using putrescine as a substrate and native ´fibroblast derived LOX, which was prepared by collecting the supernatant of IMR90 cells, followed by a size filtration > 10 kDa for concentration and < 50 kDa to separate from LOXL2, or recombinant LOXL2 as enzyme (R&D Systems)."}, "[2]": {"molecular_target": "T2, recombinant LOXL2 (Homo sapiens, UniProt Q9Y4K0)", "T2 construct": "purchased R&D Systems", "T2 sequence (Q9Y4K0 26-774)": "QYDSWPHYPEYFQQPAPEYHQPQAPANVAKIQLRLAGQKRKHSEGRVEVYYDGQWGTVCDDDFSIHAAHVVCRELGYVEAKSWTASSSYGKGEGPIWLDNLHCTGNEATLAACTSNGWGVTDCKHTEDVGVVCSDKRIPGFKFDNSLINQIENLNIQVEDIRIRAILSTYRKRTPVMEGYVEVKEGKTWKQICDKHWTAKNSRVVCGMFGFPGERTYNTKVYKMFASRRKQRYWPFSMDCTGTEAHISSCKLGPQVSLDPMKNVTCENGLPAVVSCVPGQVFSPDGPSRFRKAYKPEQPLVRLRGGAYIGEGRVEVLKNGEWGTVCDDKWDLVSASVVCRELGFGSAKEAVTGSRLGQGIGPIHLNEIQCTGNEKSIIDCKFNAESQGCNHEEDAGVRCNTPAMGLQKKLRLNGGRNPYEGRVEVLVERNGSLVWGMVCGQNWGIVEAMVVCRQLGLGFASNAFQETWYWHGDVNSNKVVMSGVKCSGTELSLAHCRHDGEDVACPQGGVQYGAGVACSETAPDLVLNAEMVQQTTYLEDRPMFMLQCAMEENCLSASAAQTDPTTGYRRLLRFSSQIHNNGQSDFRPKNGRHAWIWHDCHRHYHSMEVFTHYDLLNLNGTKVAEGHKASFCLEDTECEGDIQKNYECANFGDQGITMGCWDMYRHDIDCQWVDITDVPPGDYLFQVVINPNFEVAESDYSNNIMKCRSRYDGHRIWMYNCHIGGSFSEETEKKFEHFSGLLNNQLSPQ", "experiment": "Amplex Red activity/inhibition assay, recombinant LOXL2", "format": "biochemical", "conditions": "putrescine substrate", "protocol": "as §1"}}}
{"molecule": "N#CCCN", "note": "[BAPN, β-aminopropionitrile]", "values": [{"measurement": "pIC50 ± SD against native human LOX enzyme", "setting": "[1]", "value": "5.5 ± 0.1"}, {"measurement": "pIC50 ± SD against recombinant LOXL2 enzyme", "setting": "[2]", "value": "6.4 ± 0.1"}]}
